Patent US20230338545A1 (SYRACUSE UNIVERSITY, priority 2020, published 2023)
Entries after “also recorded” stand apart in the source; their conditions may differ.

Experiments:
[1] = comparison value; cited from earlier work
CaCo-2 cells = test: Cellular uptake of magnesium in CaCo-2 cells; format: cell-based, human; conditions: incubation time 1 hr, samples contain ~8% magnesium citrate

Compound	water solubility of free ligand [1]	solubility (Solubility in water; Example 3 product)	solubility relative to that of the free ligand (Solubility in water; complex vs. its ligand (maltol or ethylmaltol), water)	solubility (Solubility in water; triplicate independent runs)	cellular uptake of magnesium (CaCo-2 cells)
CCc1occc(=O)c1O [ethylmaltol]	5.84 g/100 mL				
Cc1occc(=O)c1O [maltol, 3-HYDROXY-2-METHYL-4H-PYRAN-4-ONE]	1.2 g/100 mL				
magnesium ethylmaltol [Complex 2]		26.8 g/100 mL H2O	approximately 4.9 ×	28.4±0.86 g per 100 mL of H2O	substantial uptake of magnesium; also recorded: slightly greater uptake than Complex 1; also recorded: confirmed cellular entry
magnesium maltol [Complex 1]					substantial uptake of magnesium; also recorded: confirmed cellular entry
